Laboratory results taken from patent publication US20240174744A1, “METHODS OF TREATMENT USING PROTEIN BINDERS TO IRHOM2 EPITOPES” (SCIRHOM GMBH, priority 2021, published 2024).

System: LPS-induced release of TNFα from PBMCs from patients suffering from rheumatoid arthritis
Experiment: ELISA-based TNFα release assay, PBMCs from RA-patients
Format: cell-based
Details: Homo sapiens, PBMC; chimeric antibodies (CHO) 1 μg/ml; Batimastat 10 μM; LPS 1 ng/ml, 1.5 hours
Description: In contrast to Example 32, where the inhibitory effects of the antibodies of the present disclosure on LPS-induced release of endogenous TNFα from primary human material obtained from healthy donors using peripheral blood mononuclear cells (PBMCs) were tested, this analysis was conducted to analyze the inhibitory effects of the antibodies of the present disclosure on LPS-induced release of endogenous TNFα from primary human material obtained from patients suffering from rheumatoid arthritis (RA-patients).
In brief, on day 1, Nunc black MaxiSorp® 96-well plates (Thermo Fisher Scientific, USA) were coated overnight with 100 μl per well of mouse anti-human TNFα capture antibody (provided as part of the DuoSet ELISA kit) at 4 μg/ml TBS at 4° C. On day 2, the capture antibody solution was removed and MaxiSorp® plates were blocked with 300 μl per well of TBS, 1% BSA at room temperature for 3 hours. […] Using an infinite M1000 (Tecan Group, Switzerland) microplate reader, the fluorescence of each well was collected at an excitation wavelength of 435 nm and an emission wavelength of 555 nm.

Q: How did the inhibition at 10 µM turn out when `CNC(=O)[C@H](Cc1ccccc1)NC(=O)[C@H](CC(C)C)[C@H](CSc1cccs1)C(=O)NO` [Batimastat] was run?
A: The inhibition at 10 µM was 99.9%.
